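Five concentrations, 48 hours, 96-well plates. GI50 is the concentration that inhibits growth by half.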 Calls of active or inactive are those of the source. No stated cut-off is given here; in the data, active = GI50 up to about 1.1 µM and inactive = higher.
How the values were obtained:
Assay in all cases: NCI-60 cell line screen, 48 h
CCRF-CEM = tested on: CCRF-CEM
RPMI-8226 = tested on: RPMI-8226
SR = tested on: SR
SNB-19 = tested on: SNB-19
MCF7 = tested on: MCF7
NCI-H460 = tested on: NCI-H460
MOLT-4 = tested on: MOLT-4
T47D = tested on: T47D
SK-MEL-28 = tested on: SK-MEL-28
SN12C = tested on: SN12C
SK-MEL-5 = tested on: SK-MEL-5
HCC 2998 = tested on: HCC 2998
SW-620 = tested on: SW-620
HCT-116 = tested on: HCT-116
SF-268 = tested on: SF-268
UACC-257 = tested on: UACC-257
RXF 393 = tested on: RXF 393
BT-549 = tested on: BT-549
Malme-3M = tested on: Malme-3M

Measured: GI50

CN(C)c1nc(N)nc(CS)n1
inactive: CCRF-CEM 25.5 µM | RPMI-8226 96.2 µM | SR 37.2 µM | SNB-19 > 100 µM | MCF7 > 100 µM | NCI-H460 46 µM | MOLT-4 50 µM | T47D > 100 µM | SK-MEL-28 > 100 µM | SN12C > 100 µM | SK-MEL-5 > 100 µM | HCC 2998 > 100 µM | SW-620 > 100 µM | HCT-116 > 100 µM | SF-268 > 100 µM | UACC-257 > 100 µM | RXF 393 > 100 µM | BT-549 > 100 µM

COc1cccc(C2SC(=N)Nc3c2c(C)nn3C(=O)Cc2ccccc2)c1 (configuration not stated)
inactive: CCRF-CEM > 100 µM | RPMI-8226 > 100 µM | SR > 100 µM | SNB-19 > 100 µM | MCF7 39.8 µM | Malme-3M > 100 µM | NCI-H460 > 100 µM | MOLT-4 > 100 µM | T47D > 100 µM | SK-MEL-28 > 100 µM | SN12C > 100 µM | SK-MEL-5 > 100 µM | HCC 2998 > 100 µM | SW-620 > 100 µM | HCT-116 > 100 µM | SF-268 > 100 µM | UACC-257 > 100 µM | BT-549 > 100 µM

O=c1cc(N2CCOCC2)n2c(ccc3ccccc32)n1
inactive: CCRF-CEM > 100 µM | RPMI-8226 > 100 µM | SR > 100 µM | SNB-19 > 100 µM | MCF7 > 100 µM | Malme-3M > 100 µM | MOLT-4 > 100 µM | T47D > 100 µM | SN12C > 100 µM | SK-MEL-5 > 100 µM | HCC 2998 > 100 µM | SW-620 > 100 µM | HCT-116 > 100 µM | SF-268 > 100 µM | UACC-257 > 100 µM | RXF 393 > 100 µM | BT-549 > 100 µM

CC(=O)OCc1cc(CCC(=O)NCCNc2c3ccccc3nc3ccccc23)cc(COC(C)=O)c1O[Si](C)(C)C(C)(C)C
inactive: CCRF-CEM 3.7 µM | RPMI-8226 2.57 µM | SR 2.21 µM | SNB-19 11.1 µM | MCF7 2.2 µM | Malme-3M 6.25 µM | NCI-H460 3.72 µM | MOLT-4 2.4 µM | T47D 1.97 µM | SK-MEL-28 4.73 µM | SN12C 1.83 µM | SW-620 9.44 µM | HCT-116 4.61 µM | UACC-257 4.36 µM | RXF 393 3.48 µM | BT-549 13.7 µM

Cc1c(S(=O)(=O)N/C(N)=N/c2ccc(Cl)cc2)sc2ccc(Cl)cc12
inactive: RPMI-8226 33.7 µM | SR 47.3 µM | SNB-19 21.4 µM | MCF7 17.8 µM | Malme-3M 17.1 µM | NCI-H460 16.9 µM | MOLT-4 28.6 µM | T47D 29.7 µM | SK-MEL-28 21.4 µM | SN12C 15.7 µM | SK-MEL-5 33.6 µM | SW-620 22 µM | HCT-116 15.9 µM | SF-268 17 µM | UACC-257 18.1 µM | RXF 393 48.6 µM | BT-549 24.4 µM

O=C(C#Cc1cn(C2CC(O)C(CO)O2)c(=O)[nH]c1=O)c1ccccc1 (configuration not stated)
inactive: RPMI-8226 44 µM | SR 24.8 µM | SNB-19 > 100 µM | MCF7 33.3 µM | Malme-3M 12.2 µM | NCI-H460 > 100 µM | T47D 19.5 µM | SK-MEL-28 39.5 µM | SN12C 31.8 µM | SK-MEL-5 88.7 µM | HCC 2998 > 100 µM | SW-620 25.2 µM | HCT-116 42.5 µM | SF-268 > 100 µM | UACC-257 55 µM | RXF 393 17.5 µM | BT-549 37.2 µM

CC(=O)OC1CC2c3cccc4c3C(CC2N(C)C1=O)CN4C(=O)c1ccccc1 (configuration not stated)
inactive: CCRF-CEM 20.7 µM | RPMI-8226 26.6 µM | SR 22.5 µM | SNB-19 30.3 µM | MCF7 23.1 µM | MOLT-4 20.9 µM | T47D 18.1 µM | SK-MEL-28 21.6 µM | SN12C 18.8 µM | SK-MEL-5 14.4 µM | HCC 2998 15 µM | SW-620 23.4 µM | HCT-116 17 µM | SF-268 2.2 µM | UACC-257 20.5 µM | BT-549 6.9 µM

COc1ccc(C(CC(=O)c2ccc3c(c2)OCO3)c2c(O)oc3ccccc3c2=O)cc1OC (configuration not stated)
inactive: CCRF-CEM > 100 µM | RPMI-8226 45.1 µM | SNB-19 > 100 µM | MCF7 69.3 µM | Malme-3M > 100 µM | NCI-H460 44.7 µM | MOLT-4 > 100 µM | T47D > 100 µM | SK-MEL-28 > 100 µM | SN12C > 100 µM | SK-MEL-5 47 µM | HCC 2998 > 100 µM | SW-620 > 100 µM | HCT-116 75.3 µM | SF-268 > 100 µM | UACC-257 > 100 µM | RXF 393 > 100 µM | BT-549 36.2 µM

Reference: ChEMBL document CHEMBL1201862, “PubChem BioAssay data set” (2004)
